Paper PMC11876601 (Molecular Systems Biology, 2025)

How the values were obtained:
MAP3K1 ; Q13233 = MAP3K1 ; Q13233 (Homo sapiens, UniProt Q13233); assay: biochemical; set-up: species or system AsPC-1; Kinobeads competition pulldown in AsPC-1 lysate with LC-MS/MS label-free quantification; apparent Kd
Experimental: This was followed by incubation with Kinobeads ε (17.5 µl of settled beads) for 30 min at 4 °C to enrich kinases. […] Enriched proteins were reduced with 50 mM DTT in 8 M urea, 40 mM Tris-HCl, pH 7.4 for 30 min at room temperature, and alkylated with 55 mM chloroacetamide. After reducing the urea concentration to 1–2 M, proteins were digested with trypsin at 37 °C for 16 h. Subsequently, eluted peptides were desalted using SepPak tC18 µElution plates (Waters), freeze-dried by vacuum centrifugation, and stored at −20 °C. Proteins were filtered by potential contaminants, reversed hits and proteins identified only by site. Residual binding of proteins was calculated from LFQ intensities as the ratio between drug doses and vehicle. […] Only kinases quantified with at least 4 unique peptides in the vehicle experiment were considered. Potential targets were further curated through manual inspection of dose-dependent reduction in MS/MS and unique peptide counts.

ATR = biological target: T1, ATR (Homo sapiens, UniProt Q13535); assay: Kinobeads competition pulldown in AsPC-1 lysate; assay type: binding
T1 construct: endogenous in cells; host or cells: AsPC-1 lysate
T1 sequence (Q13535 whole entry): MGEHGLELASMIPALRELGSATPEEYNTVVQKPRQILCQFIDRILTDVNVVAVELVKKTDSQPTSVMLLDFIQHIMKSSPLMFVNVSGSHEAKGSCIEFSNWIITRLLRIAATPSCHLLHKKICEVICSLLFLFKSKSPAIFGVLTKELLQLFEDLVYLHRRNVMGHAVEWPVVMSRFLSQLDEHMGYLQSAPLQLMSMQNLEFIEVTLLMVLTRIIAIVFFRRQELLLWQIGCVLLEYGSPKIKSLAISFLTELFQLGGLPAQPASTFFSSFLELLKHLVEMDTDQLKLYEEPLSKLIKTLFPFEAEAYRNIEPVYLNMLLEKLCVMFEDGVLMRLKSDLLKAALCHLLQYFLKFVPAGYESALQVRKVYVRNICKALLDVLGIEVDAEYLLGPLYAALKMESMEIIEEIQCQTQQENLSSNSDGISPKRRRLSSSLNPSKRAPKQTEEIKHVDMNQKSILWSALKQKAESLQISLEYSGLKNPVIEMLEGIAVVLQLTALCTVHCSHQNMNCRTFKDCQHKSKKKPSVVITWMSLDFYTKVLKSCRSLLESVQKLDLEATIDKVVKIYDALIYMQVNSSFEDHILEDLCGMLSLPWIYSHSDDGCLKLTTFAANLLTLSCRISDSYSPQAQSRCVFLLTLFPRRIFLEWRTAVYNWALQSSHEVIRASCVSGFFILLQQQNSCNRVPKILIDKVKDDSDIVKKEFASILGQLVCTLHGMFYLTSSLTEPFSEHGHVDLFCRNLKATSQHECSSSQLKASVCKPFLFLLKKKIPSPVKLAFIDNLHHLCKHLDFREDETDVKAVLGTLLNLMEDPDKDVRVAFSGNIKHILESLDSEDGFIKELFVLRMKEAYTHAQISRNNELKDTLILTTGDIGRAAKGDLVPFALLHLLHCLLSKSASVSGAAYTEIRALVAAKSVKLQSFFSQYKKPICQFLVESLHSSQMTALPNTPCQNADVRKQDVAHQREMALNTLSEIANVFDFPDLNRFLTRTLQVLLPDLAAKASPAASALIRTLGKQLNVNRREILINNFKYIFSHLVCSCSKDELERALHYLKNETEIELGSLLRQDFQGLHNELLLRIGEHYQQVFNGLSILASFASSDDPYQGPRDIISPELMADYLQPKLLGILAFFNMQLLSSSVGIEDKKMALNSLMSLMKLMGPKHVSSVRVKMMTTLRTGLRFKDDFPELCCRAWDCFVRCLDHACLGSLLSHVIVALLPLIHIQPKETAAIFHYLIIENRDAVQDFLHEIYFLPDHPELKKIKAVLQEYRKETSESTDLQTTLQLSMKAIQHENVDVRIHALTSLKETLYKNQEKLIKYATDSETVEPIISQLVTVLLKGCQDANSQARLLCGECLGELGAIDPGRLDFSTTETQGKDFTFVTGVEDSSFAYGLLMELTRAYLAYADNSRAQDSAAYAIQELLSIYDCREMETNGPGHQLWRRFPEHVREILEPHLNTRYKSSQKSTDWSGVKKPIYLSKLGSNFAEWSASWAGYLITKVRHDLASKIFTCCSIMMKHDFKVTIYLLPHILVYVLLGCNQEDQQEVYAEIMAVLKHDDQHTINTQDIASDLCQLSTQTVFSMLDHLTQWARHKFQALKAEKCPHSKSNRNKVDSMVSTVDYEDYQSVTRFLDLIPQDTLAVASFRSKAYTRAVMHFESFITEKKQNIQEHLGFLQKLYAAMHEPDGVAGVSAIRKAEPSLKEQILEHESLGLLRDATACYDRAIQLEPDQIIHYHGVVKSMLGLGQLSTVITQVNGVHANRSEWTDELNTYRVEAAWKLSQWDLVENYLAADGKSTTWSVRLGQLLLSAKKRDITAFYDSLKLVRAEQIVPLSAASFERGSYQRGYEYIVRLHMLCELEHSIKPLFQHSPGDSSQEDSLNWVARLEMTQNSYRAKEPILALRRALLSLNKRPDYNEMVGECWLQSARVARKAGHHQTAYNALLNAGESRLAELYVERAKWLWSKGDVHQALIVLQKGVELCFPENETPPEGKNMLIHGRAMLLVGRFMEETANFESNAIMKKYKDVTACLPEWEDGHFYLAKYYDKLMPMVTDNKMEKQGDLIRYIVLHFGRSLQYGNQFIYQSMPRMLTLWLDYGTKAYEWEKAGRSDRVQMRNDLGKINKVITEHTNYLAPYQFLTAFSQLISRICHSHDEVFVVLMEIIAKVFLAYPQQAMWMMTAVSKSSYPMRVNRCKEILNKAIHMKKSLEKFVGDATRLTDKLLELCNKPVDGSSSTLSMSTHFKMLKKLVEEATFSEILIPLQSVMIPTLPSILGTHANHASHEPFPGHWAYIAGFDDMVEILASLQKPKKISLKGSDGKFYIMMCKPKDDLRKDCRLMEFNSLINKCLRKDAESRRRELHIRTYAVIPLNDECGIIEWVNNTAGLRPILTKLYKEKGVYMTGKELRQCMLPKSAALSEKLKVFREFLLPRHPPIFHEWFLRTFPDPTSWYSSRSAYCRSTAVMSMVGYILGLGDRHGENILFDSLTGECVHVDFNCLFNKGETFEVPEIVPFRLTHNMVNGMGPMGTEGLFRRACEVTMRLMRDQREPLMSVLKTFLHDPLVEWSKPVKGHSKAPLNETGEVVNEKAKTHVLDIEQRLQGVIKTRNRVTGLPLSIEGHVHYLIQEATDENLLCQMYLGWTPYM
T1 sequence (Q8WXE1 whole entry partner): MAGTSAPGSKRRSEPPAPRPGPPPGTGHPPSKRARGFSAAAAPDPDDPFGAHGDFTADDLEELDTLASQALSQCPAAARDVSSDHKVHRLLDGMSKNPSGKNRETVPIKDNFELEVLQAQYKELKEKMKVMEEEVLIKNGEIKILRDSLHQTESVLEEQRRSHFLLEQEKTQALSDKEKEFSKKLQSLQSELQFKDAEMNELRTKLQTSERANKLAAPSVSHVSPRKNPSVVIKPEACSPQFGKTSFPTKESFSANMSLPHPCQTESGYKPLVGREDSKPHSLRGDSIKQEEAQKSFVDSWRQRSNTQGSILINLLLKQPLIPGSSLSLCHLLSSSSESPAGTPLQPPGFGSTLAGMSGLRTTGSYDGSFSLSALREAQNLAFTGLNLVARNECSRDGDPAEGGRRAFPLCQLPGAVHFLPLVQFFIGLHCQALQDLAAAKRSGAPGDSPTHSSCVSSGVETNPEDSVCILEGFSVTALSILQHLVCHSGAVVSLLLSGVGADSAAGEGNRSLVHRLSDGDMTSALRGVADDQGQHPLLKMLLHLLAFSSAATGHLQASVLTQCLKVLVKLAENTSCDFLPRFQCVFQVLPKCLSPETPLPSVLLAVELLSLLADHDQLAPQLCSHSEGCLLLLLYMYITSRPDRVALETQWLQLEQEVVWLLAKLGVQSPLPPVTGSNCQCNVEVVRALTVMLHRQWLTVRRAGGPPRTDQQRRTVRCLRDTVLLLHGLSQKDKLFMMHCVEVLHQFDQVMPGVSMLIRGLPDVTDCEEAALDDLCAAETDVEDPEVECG
Experimental: This was followed by incubation with Kinobeads ε (17.5 µl of settled beads) for 30 min at 4 °C to enrich kinases. […] Enriched proteins were reduced with 50 mM DTT in 8 M urea, 40 mM Tris-HCl, pH 7.4 for 30 min at room temperature, and alkylated with 55 mM chloroacetamide. After reducing the urea concentration to 1–2 M, proteins were digested with trypsin at 37 °C for 16 h. Subsequently, eluted peptides were desalted using SepPak tC18 µElution plates (Waters), freeze-dried by vacuum centrifugation, and stored at −20 °C.
For LC-MS/MS, dried peptides were reconstituted in 0.1% formic acid and analyzed on a Dionex Ultimate3000 nano HPLC (Thermo Scientific) coupled to an Orbitrap Fusion Tribrid mass spectrometer (Thermo Scientific), which was run in data-dependent mode. Peptides were first delivered to a trap column (100 µm × 2 cm, packed in-house with Reprosil-Gold C18 ODS-3 5 µm resin, Dr. Maisch, Ammerbuch) and subsequently washed with solvent A0 (0.1% formic acid in HPLC grade water) at 5 µl/min for 10 min. […] For MS2, up to 12 peptide precursors were isolated (isolation width of 1.2 Th) and subjected to HCD fragmentation using 30% normalized collision energy. […] The duration of dynamic exclusion was set to 30 s.
Oxidized methionine and N-terminal acetylation were set as variable modification, and cysteine carbamidomethylation was set as fixed modification. Label-free quantification (LFQ) and match-between-runs were enabled. All searches were performed with 1% PSM and protein FDR.
Proteins were filtered by potential contaminants, reversed hits and proteins identified only by site. Residual binding of proteins was calculated from LFQ intensities as the ratio between drug doses and vehicle. […] Only kinases quantified with at least 4 unique peptides in the vehicle experiment were considered. Potential targets were further curated through manual inspection of dose-dependent reduction in MS/MS and unique peptide counts.

Chain of MAP3K1 ; Q13233 (Q13233 whole entry): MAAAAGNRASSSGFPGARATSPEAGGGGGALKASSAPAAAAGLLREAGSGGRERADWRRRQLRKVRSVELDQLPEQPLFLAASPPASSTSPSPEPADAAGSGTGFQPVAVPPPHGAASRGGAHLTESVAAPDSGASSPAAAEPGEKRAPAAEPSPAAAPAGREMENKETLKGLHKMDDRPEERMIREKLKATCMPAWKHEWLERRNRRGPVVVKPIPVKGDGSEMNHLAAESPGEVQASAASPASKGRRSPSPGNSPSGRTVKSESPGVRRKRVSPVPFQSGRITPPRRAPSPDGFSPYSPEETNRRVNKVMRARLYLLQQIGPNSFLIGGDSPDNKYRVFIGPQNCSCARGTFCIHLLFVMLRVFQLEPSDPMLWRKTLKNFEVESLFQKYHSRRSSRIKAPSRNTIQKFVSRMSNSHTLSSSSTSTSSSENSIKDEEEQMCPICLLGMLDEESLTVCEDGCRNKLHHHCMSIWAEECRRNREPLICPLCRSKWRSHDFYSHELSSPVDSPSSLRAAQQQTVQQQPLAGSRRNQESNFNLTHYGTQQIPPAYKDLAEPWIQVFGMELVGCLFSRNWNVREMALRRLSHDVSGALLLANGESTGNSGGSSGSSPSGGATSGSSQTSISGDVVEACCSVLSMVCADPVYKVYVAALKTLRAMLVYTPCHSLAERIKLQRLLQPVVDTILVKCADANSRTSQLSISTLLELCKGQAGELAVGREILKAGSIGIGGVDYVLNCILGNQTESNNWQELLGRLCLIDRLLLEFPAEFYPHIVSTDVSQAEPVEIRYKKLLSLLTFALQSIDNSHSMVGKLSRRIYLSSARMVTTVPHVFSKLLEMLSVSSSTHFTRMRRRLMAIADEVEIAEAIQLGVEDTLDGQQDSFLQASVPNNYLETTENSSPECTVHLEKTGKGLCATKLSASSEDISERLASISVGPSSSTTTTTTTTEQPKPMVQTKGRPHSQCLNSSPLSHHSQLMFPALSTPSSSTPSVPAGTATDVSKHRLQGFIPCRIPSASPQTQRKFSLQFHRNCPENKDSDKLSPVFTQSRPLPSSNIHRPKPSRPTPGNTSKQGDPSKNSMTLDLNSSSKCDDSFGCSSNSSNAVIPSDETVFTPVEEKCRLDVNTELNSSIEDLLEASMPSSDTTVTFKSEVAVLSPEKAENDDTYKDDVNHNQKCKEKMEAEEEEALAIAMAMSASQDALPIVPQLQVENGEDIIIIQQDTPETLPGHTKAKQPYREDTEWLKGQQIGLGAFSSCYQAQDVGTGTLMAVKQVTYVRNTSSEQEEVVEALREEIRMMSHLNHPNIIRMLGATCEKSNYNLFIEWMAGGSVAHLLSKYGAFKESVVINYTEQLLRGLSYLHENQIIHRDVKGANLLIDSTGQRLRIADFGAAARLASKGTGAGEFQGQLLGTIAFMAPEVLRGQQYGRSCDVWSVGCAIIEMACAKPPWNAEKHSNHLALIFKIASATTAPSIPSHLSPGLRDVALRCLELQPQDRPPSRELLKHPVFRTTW

Structure (SMILES)	Kd (MAP3K1 ; Q13233) [nM]	affinity to ATR over off-targets (ATR; Berzosertib: vs. all except ACVR2, Elimusertib: vs. PIK3C2A, Ceralasertib: vs. CDK7) [fold]	Kd (ATR; AsPC-1 lysate, read-out: KDapp) [nM]
CNCc1ccc(-c2cc(-c3nc(-c4ccc(S(=O)(=O)C(C)C)cc4)cnc3N)on2)cc1 [Berzosertib]	11.6	> 10	
Nc1nn2cc(F)cnc2c1C(=O)Nc1cncc(F)c1N1CCC(C(=O)N2CCN(C3COC3)CC2)CC1 [Gartisertib]	422		318
